Data: ChEMBL document CHEMBL5137121, “Spiroisoxazoline Inhibitors of Acetylcholinesterase from Pseudoceratina verrucosa. Quantitative Chiroptical Analysis of Configurational Heterogeneity, and Total Synthesis of (±)-Methyl Purpuroceratate C” (J Nat Prod, 2022)

Tests used:
Acetylcholinesterase = Acetylcholinesterase (Electrophorus electricus, UniProt O42275); test: Inhibition of electric eel AChE using acetylthiocholine as substrate preincubated with enzyme for 30 mins followed by substrate addition by Ellman's method
Acetylcholinesterase, sequence (O42275 whole entry): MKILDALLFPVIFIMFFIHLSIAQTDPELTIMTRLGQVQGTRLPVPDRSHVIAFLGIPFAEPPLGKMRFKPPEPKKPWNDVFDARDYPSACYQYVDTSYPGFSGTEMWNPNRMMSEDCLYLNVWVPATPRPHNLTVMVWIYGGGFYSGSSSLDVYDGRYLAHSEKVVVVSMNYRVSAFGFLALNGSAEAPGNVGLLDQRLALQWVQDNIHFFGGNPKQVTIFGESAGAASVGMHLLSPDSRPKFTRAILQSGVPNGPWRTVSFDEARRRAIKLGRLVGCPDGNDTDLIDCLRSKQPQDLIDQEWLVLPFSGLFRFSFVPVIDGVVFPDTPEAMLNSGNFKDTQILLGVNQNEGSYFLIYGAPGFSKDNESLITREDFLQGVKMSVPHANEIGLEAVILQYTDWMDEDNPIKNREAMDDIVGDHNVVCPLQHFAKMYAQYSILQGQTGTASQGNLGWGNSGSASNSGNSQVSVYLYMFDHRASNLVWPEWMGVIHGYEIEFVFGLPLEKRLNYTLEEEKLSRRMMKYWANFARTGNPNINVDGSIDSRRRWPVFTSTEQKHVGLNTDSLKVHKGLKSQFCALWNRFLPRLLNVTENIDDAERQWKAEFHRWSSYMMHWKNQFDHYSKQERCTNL

[1] = Selectivity index, ratio of IC50 for horse BuChE to IC50 for electric eel AChE
Cholinesterase = Cholinesterase (Equus caballus, UniProt P81908); test: Inhibition of horse BuChE using butyrylthiocholine as substrate preincubated with enzyme for 30 mins followed by substrate addition by Ellman's method
Cholinesterase, sequence (P81908 whole entry): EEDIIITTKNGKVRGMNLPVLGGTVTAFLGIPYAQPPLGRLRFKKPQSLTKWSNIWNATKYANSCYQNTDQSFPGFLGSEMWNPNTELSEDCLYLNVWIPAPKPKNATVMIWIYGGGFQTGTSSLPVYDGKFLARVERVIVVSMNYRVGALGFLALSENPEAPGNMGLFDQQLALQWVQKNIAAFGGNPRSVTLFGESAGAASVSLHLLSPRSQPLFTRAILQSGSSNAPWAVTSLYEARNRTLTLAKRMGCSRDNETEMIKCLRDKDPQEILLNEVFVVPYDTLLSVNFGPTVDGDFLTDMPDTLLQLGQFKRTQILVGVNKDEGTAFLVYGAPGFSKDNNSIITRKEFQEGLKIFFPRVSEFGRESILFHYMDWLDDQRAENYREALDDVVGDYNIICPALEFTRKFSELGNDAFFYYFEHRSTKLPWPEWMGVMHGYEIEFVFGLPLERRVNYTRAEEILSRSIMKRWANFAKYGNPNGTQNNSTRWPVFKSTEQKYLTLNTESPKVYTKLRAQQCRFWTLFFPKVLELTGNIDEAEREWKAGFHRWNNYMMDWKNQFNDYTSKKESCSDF

SMILES	IC50 (Acetylcholinesterase) [µM]	Ratio IC50 [1]	IC50 (Cholinesterase) [µM]
COC1=C(Br)[C@H](O)[C@@]2(C=C1Br)CC(C(=O)NCCCOc1c(Br)cc(C[C@H](N)C(=O)O)cc1Br)=NO2	19.9	> 5	> 100
COC1=C(Br)[C@H](O)[C@@]2(C=C1Br)CC(C(=O)NCCCCCNC(=N)N)=NO2 [APLYSINAMISINE II]	0.77	13	10.3
COC1=C(Br)[C@H](O)[C@@]2(C=C1Br)CC(C(=O)NCCc1cc(Br)c(OCCC(C(=O)[O-])[N+](C)(C)C)c(Br)c1)=NO2 (stereo not given in full)	4.79	2.1	10
COC1=C(Br)[C@H](O)[C@@]2(C=C1Br)CC(C(N)=O)=NO2	3.32	4.6	15.4
COC1=C(Br)[C@H](O)[C@@]2(C=C1Br)CC(C(=O)NCCc1cc(Br)c(O)c(Br)c1)=NO2	5.8	1.9	10.7
